This is an account of results in ChEMBL document CHEMBL1201862, “PubChem BioAssay data set” (2004).

Calls of active or inactive are those of the source.

Test [1] addresses T1, Sentrin-specific protease 8 (Homo sapiens, UniProt Q96LD8).
T1 sequence (Q96LD8 whole entry): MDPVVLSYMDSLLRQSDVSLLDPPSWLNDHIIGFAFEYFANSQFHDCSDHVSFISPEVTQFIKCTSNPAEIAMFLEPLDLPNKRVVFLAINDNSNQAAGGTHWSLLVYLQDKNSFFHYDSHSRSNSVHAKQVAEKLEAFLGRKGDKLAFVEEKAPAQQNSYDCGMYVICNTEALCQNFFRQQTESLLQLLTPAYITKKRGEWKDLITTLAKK
It counts as functional.

A further test deals with T2, Caspase-3 (Homo sapiens, UniProt P42574).
T2 sequence (P42574 whole entry): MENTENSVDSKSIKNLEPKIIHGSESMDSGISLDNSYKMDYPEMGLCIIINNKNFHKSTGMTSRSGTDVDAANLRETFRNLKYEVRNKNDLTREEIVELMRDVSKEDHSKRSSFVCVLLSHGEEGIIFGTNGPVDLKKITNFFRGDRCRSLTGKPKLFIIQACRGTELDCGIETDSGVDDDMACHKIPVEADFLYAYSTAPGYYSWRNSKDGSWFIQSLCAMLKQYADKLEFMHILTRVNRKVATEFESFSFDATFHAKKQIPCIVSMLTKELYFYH
The test is classed as functional.

The target of test [2] is T3, Sentrin-specific protease 6 (Homo sapiens, UniProt Q9GZR1).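 Further: Luminescence-based dose-response confirmatory assay of SENP6 inhibition, following up an ultra-high-throughput screen.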
T3 sequence (Q9GZR1 whole entry): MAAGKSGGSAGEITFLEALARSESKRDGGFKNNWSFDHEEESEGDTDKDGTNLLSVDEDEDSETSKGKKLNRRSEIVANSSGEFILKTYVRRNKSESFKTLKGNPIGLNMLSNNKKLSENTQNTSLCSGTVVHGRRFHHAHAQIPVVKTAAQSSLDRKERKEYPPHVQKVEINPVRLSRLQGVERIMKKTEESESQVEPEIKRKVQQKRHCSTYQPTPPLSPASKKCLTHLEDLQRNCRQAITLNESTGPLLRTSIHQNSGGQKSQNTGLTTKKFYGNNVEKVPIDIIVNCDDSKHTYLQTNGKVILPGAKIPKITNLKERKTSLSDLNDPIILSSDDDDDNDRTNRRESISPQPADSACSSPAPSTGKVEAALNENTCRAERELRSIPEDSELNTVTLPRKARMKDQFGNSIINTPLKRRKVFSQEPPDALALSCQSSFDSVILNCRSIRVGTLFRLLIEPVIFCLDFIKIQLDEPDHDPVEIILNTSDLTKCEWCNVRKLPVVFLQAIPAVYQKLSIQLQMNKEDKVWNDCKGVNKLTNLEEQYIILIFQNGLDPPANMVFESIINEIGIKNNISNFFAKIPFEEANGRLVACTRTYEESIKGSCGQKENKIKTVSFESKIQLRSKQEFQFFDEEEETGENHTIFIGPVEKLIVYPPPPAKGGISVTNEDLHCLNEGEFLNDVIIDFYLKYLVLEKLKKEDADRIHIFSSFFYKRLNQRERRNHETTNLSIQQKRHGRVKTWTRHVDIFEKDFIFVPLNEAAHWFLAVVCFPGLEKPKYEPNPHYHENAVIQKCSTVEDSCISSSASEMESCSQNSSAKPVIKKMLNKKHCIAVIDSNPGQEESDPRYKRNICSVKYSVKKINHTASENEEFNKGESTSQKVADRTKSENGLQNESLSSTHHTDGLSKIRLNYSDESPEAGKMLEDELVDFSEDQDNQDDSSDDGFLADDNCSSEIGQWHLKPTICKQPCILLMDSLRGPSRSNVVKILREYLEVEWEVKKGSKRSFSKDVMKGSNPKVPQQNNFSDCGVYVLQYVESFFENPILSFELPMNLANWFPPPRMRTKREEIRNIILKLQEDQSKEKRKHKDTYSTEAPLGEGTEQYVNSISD
The test is classed as functional.

Test [3] has as its target T4, Sentrin-specific protease 7 (Homo sapiens, UniProt Q9BQF6).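 Further: Luminescence-based dose-response confirmation of ultra-high-throughput screening hits, measuring inhibition of SENP7.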
T4 sequence (Q9BQF6 whole entry): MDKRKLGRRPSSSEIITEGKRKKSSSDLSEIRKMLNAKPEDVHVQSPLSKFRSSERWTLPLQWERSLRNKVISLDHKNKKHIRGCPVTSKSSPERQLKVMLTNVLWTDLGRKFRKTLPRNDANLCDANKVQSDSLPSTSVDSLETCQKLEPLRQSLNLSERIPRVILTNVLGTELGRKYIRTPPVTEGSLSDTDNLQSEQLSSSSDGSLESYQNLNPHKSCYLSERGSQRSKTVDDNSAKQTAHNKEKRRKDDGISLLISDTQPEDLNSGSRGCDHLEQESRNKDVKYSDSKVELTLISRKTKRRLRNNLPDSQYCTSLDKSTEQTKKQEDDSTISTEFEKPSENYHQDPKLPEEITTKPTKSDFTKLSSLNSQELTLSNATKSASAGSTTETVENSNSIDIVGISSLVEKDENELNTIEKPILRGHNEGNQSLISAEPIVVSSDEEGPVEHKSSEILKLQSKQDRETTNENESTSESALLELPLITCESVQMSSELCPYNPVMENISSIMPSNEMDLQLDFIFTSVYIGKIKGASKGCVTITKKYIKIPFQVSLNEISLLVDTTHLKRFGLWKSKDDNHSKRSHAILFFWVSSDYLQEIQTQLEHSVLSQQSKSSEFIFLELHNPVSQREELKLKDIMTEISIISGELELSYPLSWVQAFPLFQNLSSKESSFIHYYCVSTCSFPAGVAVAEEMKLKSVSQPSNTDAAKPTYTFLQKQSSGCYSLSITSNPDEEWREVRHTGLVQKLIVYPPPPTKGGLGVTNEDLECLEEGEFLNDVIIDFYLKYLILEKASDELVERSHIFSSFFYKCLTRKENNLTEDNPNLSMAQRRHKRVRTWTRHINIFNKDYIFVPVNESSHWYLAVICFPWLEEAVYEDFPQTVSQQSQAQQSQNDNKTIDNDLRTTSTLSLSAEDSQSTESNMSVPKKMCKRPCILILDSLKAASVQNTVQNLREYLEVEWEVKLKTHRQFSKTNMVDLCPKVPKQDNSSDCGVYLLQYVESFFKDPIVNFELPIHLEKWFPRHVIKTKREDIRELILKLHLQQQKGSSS
It counts as functional.

A short description of test [4]: Luminescence Cell-Based Dose Response HTS to Identify Activators of Luciferase Translation or Activity in H4 […] Cells. [Related pubchem assays: 1829 (Project Summary), 1814 (Primary HTS)]. It counts as functional.
The test system of another test is H4. The test can be described thus: Luminescence Cell-Based Dose Response HTS to Identify Activators of 5'UTR Stem-Loop Driven Prion Protein mRNA Translation in H4 Neuroglioblastoma Cells. [Related pubchem assays: 1829 (Project Summary), 1814 (Primary HTS)]. Particulars: Homo sapiens. It counts as functional.
The nature of test [5]: Luminescence Cell-Based Dose Confirmation HTS to Identify Activators of 5'UTR Stem-Loop Driven Alpha-Synuclein mRNA Translation in H4 Neuroglioblastoma Cells. [Related pubchem assays: 1829 (Project Summary), 1814 (Primary HTS)]. The test is classed as functional.
Test [6] deals with T5, Oxysterols receptor LXR-beta (Homo sapiens, UniProt P55055).
T5 sequence (P55055 whole entry): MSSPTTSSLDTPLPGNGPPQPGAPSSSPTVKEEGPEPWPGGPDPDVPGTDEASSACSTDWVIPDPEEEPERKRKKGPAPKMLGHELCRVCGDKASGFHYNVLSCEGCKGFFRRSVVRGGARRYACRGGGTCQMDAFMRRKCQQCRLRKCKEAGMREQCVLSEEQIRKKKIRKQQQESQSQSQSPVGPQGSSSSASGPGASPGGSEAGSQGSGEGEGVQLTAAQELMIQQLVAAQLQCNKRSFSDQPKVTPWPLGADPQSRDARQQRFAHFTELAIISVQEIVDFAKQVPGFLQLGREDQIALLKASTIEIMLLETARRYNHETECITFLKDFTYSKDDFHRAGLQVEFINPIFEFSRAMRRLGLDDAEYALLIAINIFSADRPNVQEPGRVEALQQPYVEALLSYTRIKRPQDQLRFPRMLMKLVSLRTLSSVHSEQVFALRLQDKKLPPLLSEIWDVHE
The test is classed as functional, cell-based.

In the case of `CSc1ncccc1C(=O)OCc1ccccc1`, the 50% inhibitory concentration (IC50) (usually the midpoint of a concentration-inhibition curve) was 43.6 µM (active) in [1], 21.3 µM (active) on Caspase-3, 31.8 µM (active) in test [2] and 9.53 µM (active) in test [3].
Consider `O=c1cc(-c2cccs2)oc2ccc(Cl)cc12`, for which the IC50 is > 100 µM (inactive) in test [1], 18 µM (active) at Caspase-3, > 100 µM (inactive) in test [2] and 7.72 µM (active) in [3]. The EC50 (in general, the concentration that produces a half-maximal response) is 5.5 µM (active) in [4], > 120 µM (not active) with H4 and 3.83 µM (active) in test [5].
`C(=N\Nc1ccccc1)/c1nc2ccccc2s1`: the IC50 in test [1] was > 100 µM (inactive); on Caspase-3, 26 µM (active); in [2], > 100 µM (inactive); in test [3], 1.6 µM (active). The EC50 (in [6]; in “cells”) was > 67.5 µM (inactive) throughout.
